Measurements from patent publication US20060142312A1, “C6-aryl and heteroaryl substituted pyrido[2,3-D] pyrimidin-7-ones” (PFIZER INC, priority 2004, published 2006).

Test system: not given
Settings: not given

Row | melting point [°C] | Structure (SMILES)
1 | 134 to 137 | Cc1ccccc1Cc1cc2cnc(NCCN3CCOCC3)nc2n(C2CCCC2)c1=O [Example 73, 8-Cyclopentyl-6-(2-methyl-benzyl)-2-(2-morpholin-4-yl-ethylamino)-8H-pyrido[2,3-d]pyrimidin-7-one]
2 | 118 to 119 | Cc1ccccc1Cc1cc2cnc(NCCCN3CCOCC3)nc2n(C2CCCC2)c1=O [Example 74, 8-Cyclopentyl-6-(2-methyl-benzyl)-2-(3-morpholin-4-yl-propylamino)-8H-pyrido[2,3-d]pyrimidin-7-one]
3 | 88 to 91 | Cc1ccc(Cc2cc3cnc(NCCN4CCOCC4)nc3n(C3CCCC3)c2=O)cc1 [Example 75, 8-Cyclopentyl-6-(4-methyl-benzyl)-2-(2-morpholin-4-yl-ethylamino)-8H-pyrido[2,3-d]pyrimidin-7-one]
4 | 114 to 116 | Cc1ccc(Cc2cc3cnc(NCCCN4CCOCC4)nc3n(C3CCCC3)c2=O)cc1 [Example 76, 8-Cyclopentyl-6-(4-methyl-benzyl)-2-(3-morpholin-4-yl-propylamino)-8H-pyrido[2,3-d]pyrimidin-7-one]
5 | > 45 | Cc1ccccc1Cc1cc2cnc(NCCCN3CCN(C)CC3)nc2n(C2CCCC2)c1=O [Example 77, 8-Cyclopentyl-6-(2-methyl-benzyl)-2-[3-(4-methyl-piperazin-1-yl)-propylamino]-8H-pyrido[2,3-d]pyrimidin-7-one]
6 | 123 to 124 | Cc1ccc(Cc2cc3cnc(NCCCN4CCN(C)CC4)nc3n(C3CCCC3)c2=O)cc1 [Example 78, 8-Cyclopentyl-6-(4-methyl-benzyl)-2-[3-(4-methyl-piperazin-1-yl)-propylamino]-8H-pyrido[2,3-d]pyrimidin-7-one]
7 | 149 to 152 | CCCN1CCC(Nc2ncc3cc(Cc4nccs4)c(=O)n(C4CCCC4)c3n2)CC1 [Example 86, 8-Cyclopentyl-2-(1-propyl-piperidin-4-ylamino)-6-thiazol-2-ylmethyl-8H-pyrido[2,3-d]pyrimidin-7-one]
8 | 154 to 157 | CN(C)C1CCC(Nc2ncc3cc(Cc4nccs4)c(=O)n(C4CCCC4)c3n2)CC1 (stereo not shown) [Example 87, 8-Cyclopentyl-2-(4-dimethylamino-cyclohexylamino)-6-thiazol-2-ylmethyl-8H-pyrido[2,3-d]pyrimidin-7-one]
9 | 133 to 134 | CCCN1CCC(Nc2ncc3cc(Cc4ccccn4)c(=O)n(C4CCCC4)c3n2)CC1 [Example 88, 8-Cyclopentyl-2-(1-propyl-piperidin-4-ylamino)-6-pyridin-2-ylmethyl-8H-pyrido[2,3-d]pyrimidin-7-one]
10 | 105 to 107 | CN(C)CCCCNc1ncc2cc(Cc3ccccn3)c(=O)n(C3CCCC3)c2n1 [Example 89, 8-Cyclopentyl-2-(4-dimethylamino-butylamino)-6-pyridin-2-ylmethyl-8H-pyrido[2,3-d]pyrimidin-7-one]
11 | 122 to 124 | CN(C)CCCCNc1ncc2cc(Cc3nccs3)c(=O)n(C3CCCC3)c2n1 [Example 90, 8-Cyclopentyl-2-(4-dimethylamino-butylamino)-6-thiazol-2-ylmethyl-8H-pyrido[2,3-d]pyrimidin-7-one]
12 | 289.2 to 290 | Cc1ccc(Cc2cc3cnc(Nc4ccc(N5CCOC5=O)cc4)nc3n(C3CCCC3)c2=O)cc1 [Example 103, 8-Cyclopentyl-6-(4-methyl-benzyl)-2-[4-(2-oxo-oxazolidin-3-yl)-phenylamino]-8H-pyrido[2,3-d]pyrimidin-7-one]

Test system: neointima formation
Settings: in rats; cited from earlier work

Row | Structure (SMILES) | inhibition of neointima formation
13 | COc1ccc(CNc2nc(N(CCO)CCO)nc3c2ncn3C(C)C)cc1 [CVT-313] | greater than 80%
